ChEMBL document CHEMBL1136959, “Hit-to-lead optimization of pyrrolo[1,2-a]quinoxalines as novel cannabinoid type 1 receptor antagonists” (Bioorg Med Chem Lett, 2009)

Biological target: Cannabinoid receptor 1 (Rattus norvegicus, UniProt P20272)
Test: Displacement of [3H]SR141716A from CB1 receptor in rat cerebellum membrane
Type: cell membranes

Cannabinoid receptor 1, sequence (P20272 whole entry): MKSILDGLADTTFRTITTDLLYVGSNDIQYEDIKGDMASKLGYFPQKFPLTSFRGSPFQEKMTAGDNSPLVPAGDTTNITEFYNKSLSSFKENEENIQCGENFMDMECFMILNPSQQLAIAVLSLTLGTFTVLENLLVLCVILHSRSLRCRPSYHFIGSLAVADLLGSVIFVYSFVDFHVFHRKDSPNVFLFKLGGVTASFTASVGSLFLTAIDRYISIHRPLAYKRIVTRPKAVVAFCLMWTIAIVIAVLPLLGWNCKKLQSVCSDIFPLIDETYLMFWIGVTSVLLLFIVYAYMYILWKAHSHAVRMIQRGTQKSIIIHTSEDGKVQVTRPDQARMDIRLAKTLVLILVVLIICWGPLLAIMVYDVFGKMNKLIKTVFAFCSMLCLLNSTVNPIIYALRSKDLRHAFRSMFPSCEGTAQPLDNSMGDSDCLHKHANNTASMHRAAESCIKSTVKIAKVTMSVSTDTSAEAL

| Ki [nM] | Structure (SMILES) |
| --- | --- |
| 137 | CCCCN(CC(=O)N1c2ccccc2-n2cccc2C1c1ccc(OC)cc1)C(=O)c1ccccc1Cl (centres undefined) |
| 78 | CCCCN(CC(=O)N1c2ccccc2-n2cccc2C1c1ccc(OC)cc1)C(=O)C1CC1 (centres undefined) |
| 220 | COc1ccc(C2c3cccn3-c3ccccc3N2C(=O)CN(C(=O)C(C)Cl)C(C)C)cc1 (centres undefined) |
| 162 | CCCCN(CC(=O)N1c2ccccc2-n2cccc2C1c1ccc(F)cc1)C(=O)C(C)Cl (centres undefined) |
| 45 | CCCCN(CC(=O)N1c2ccccc2-n2cccc2C1c1ccc(Cl)cc1)C(=O)C(C)Cl (centres undefined) |
| 602 | CCCCN(CC(=O)N1c2ccccc2-n2cccc2C1c1ccc(OC)cc1)C(=O)C1CCCC1 (centres undefined) |
| 831 | CCCCN(CC(=O)N1c2ccccc2-n2cccc2C1c1ccc(OC)cc1)C(=O)c1cc(Cl)cc(Cl)c1 (centres undefined) |
| 461 | CCCCN(CC(=O)N1c2ccccc2-n2cccc2C1c1ccc(OC)cc1)C(=O)COC (centres undefined) |
| 539 | CCCCN(CC(=O)N1c2ccccc2-n2cccc2C1c1ccc(OC)cc1)C(=O)CC (centres undefined) |
| 124 | CCCCN(CC(=O)N1c2ccccc2-n2cccc2C1c1ccc(OC)cc1)C(=O)C(C)C (centres undefined) |
| 503 | CCCCN(CC(=O)N1c2ccccc2-n2cccc2C1c1ccc(OC)cc1)C(=O)c1ccccc1C (centres undefined) |
| 214 | CCCCN(CC(=O)N1c2ccccc2-n2cccc2C1c1ccc(OC)cc1)C(=O)C1CCC1 (centres undefined) |
| 349 | CCCCN(CC(=O)N1c2ccccc2-n2cccc2C1c1ccc(OC)cc1)C(=O)c1ccccc1F (centres undefined) |
| 260 | CCCCN(CC(=O)N1c2ccccc2-n2cccc2C1c1ccccc1)C(=O)C(C)Cl (centres undefined) |
| 236 | CCCCN(CC(=O)N1c2ccccc2-n2cccc2C1c1ccc(OC)cc1)C(=O)CC(C)C (centres undefined) |
| 46 | CCCCN(CC(=O)N1c2ccccc2-n2cccc2C1c1ccc(OC)cc1)C(=O)C(C)Cl (centres undefined) |

Biological target: Cannabinoid receptor 1 (Rattus norvegicus) (UniProt P20272)
Sequence (P20272 whole entry): as above
Test: Displacement of [3H]SR141716A from CB1 receptor in rat cerebellum membrane at 1 uM
Type: cell membranes

| inhibition [%] | Structure (SMILES) |
| --- | --- |
| 45 | CCCCN(CC(=O)N1c2ccccc2-n2cccc2C1c1cc(OC)ccc1OC)C(=O)C(C)Cl (centres undefined) |
| 31 | CCCCN(CC(=O)N1c2ccccc2-n2cccc2C1c1ccc(OC)cc1)C(C)=O (centres undefined) |
| 46 | COc1ccc(C2c3cccn3-c3ccccc3N2C(=O)CN(C)C(=O)C(C)Cl)cc1 (centres undefined) |
| 40 | COc1ccc(C2c3cccn3-c3ccccc3N2C(=O)CN(C(=O)C(C)Cl)C2CC2)cc1 (centres undefined) |
| 36 | CCCCN(CC(=O)N1c2ccccc2-n2cccc2C1c1ccccc1OC)C(=O)C(C)Cl (centres undefined) |
| 25 | COc1ccc(C2c3cccn3-c3ccccc3N2C(=O)CNC(=O)C(C)Cl)cc1 (centres undefined) |
| 15 | CCCCN(CC(=O)N1c2ccccc2-n2cccc2C1C)C(=O)C(C)Cl (centres undefined) |
| 14 | CCCCN(CC(=O)N1c2ccccc2-n2cccc2C1CC)C(=O)C(C)Cl (centres undefined) |
